Here are results for one compound from publication PMC7957516, “Biochemical Properties of Tyrosinase from Aspergillus terreus and Penicillium copticola; Undecanoic Acid from Aspergillus flavus, an Endophyte of Moringa oleifera, Is a Novel Potent Tyrosinase Inhibitor” (Molecules, 2021).

As a reminder, the IC50 is the concentration that inhibits the measured activity by half. A high value points to weaker potency.

Test [1] deals with T1, tyrosinase from A. terreus.
T1 construct: gene TYR
The note with it: 50 mM L-tyrosine, Tris-HCl pH 7.0, 37 °C; 2 h preincubation with inhibitor at 30 °C.

The target in test [2] is T2, tyrosinase from P. copticola.
T2 construct: gene TYR
The note with it: 50 mM L-tyrosine, Tris-HCl pH 7.0, 37 °C; 2 h preincubation with inhibitor at 30 °C; P. copticola not named in the value sentence, inferred as the second of the two enzymes.

≈ marks a conversion by molar mass, not a printed value.

As for `O=c1cc(CO)occ1O` [kojic acid], the figures for the IC50 in test [1] and in test [2] were 21.5 µg/mL (≈ 151 µM) and 15.1 µg/mL (≈ 106 µM), respectively.
